Results from patent publication US8940798B2, “Compounds useful for treating and/or preventing disease-associated bone loss” (Centre National de al Recherche Scientifique (CNRS), priority 2011, dated 2015).

Assays:
DBA1 mice = assay: Arthritis model induced by injecting bovine collagen into DBA1 mice; type: in vivo, mouse
Description: In inflammatory arthritis pathologies such as rheumatoid polyarthritis, the inflammatory reaction in the synovial tissue causes differentiation of osteoclasts that destroy the bone in the area of the joints (see FIG. 8). The arthritis model induced by injecting bovine collagen into DBA1 mice is classically used as a model for this pathology.
Protocol experiment 1: 2 naive DBA1 mice, 6 control mice injected with PBS and 8 test mice receiving the compound C21, 5 mg/d/kg, 5 days per week, as a retro-orbital sinus injection. The mice are distributed in 2 cages, with 1 naive mouse, 3 control mice and 4 test mice per cage. The animals, with the exception of the naive mice, receive an injection of […] of bovine collagen at day 0 and at day 20.
Protocol experiment 2: 4 naive DBA1 mice, 12 control mice injected with PBS and 12 test mice receiving the compound C21, 15 mg/d/kg, 5 days per week, as an intraperitoneal injection. The mice are distributed in 2 cages, with 2 naive mice, 6 control mice and 6 test mice per cage. The animals, with the exception of the naive mice, receive an injection of 100 μg of bovine collagen at day 0 and at day 20.
The arthritic score of each mouse is established twice per week between days 20 and D52, in order to measure swelling and deformation of the joints of the four limbs, an indication of the inflammatory response. The mice are sacrificed at D53, the legs are dissected and the structure of the bone surface of the metatarsi is imaged by micro-tomography in order to show the bone degradation at the area of the joints. The bone volume with respect to the total volume of the joint (BV/TV) decreases with the formation of resorption cavities. The measurements were performed on the joint of the central finger of the right metatarsus in experiment 1 and from the left and the right metatarsus in experiment 2. Anti-collagen IgG levels were measured in the serum of the mice in experiment 2 at day 52.

C57B1/6 mice = assay: Ovariectomy-induced bone loss model in C57B1/6 mice; type: in vivo, mouse; conditions: 5 days per week for 28 days
Source text: After menopause, a decrease in bone density due to an increase in bone resorption, leading to osteoporosis, is observed. The decrease in estrogen secretion causes i) an increase in the osteoclast level due to the decrease in secretion of OPG, a RANKL inhibitor, by the osteoblasts and ii) an increase in the lifetime of the osteoclasts due to a decrease in the production of FasL, a promoter of apoptosis, by these cells. The ovariectomy model in the mouse is classically used as a model for this physiological disturbance (see FIG. 15).
Protocol experiment 1: 8 C57B1/6 mice underwent ovariectomy (OVX) and 4 mice were operated on without ablation of the ovaries (SHAM). After this operation, 4 OVX mice received the C21 compound (test group), 5 mg/d/kg, 5 days per week for 28 days, as a retro-orbital sinus injection, and the other 4 OVX mice (control group) and the SHAM group received PBS.
Protocol experiment 2: 16 C57B1/6 mice underwent ovariectomy (OVX) and 15 mice were operated on without ablation of the ovaries (SHAM). After this operation, 8 OVX mice received the C21 compound (test group), 15 mg/d/kg solubilized in 100 μl of 5% EtOH and 4% solutol, 5 days per week for 28 days, as an intraperitoneal injection, and the other 8 OVX mice (control group) and the SHAM group received 100 μl of 5% ethanol/4% solutol vehicle solution. […]

O=S(=O)(Nc1cc(Cl)cc(Cl)c1)c1ccccc1 [C21, N-(3,5-dichlorophenyl)benzenesulfonamide]
Correlation between the arthritic score and BV/TV (DBA1 mice; experiment 1, 5 mg/d/kg): no correlation
Mean arthritic score on D52 (DBA1 mice; experiment 1, 5 mg/d/kg, 5 days per week, retro-orbital sinus injection): 3.78±1.23
Bone mass regardless of arthritic score (DBA1 mice; experiment 1, 5 mg/d/kg, BV/TV relative to arthritic score): maintenance of their bone mass
Bone mass (BV/TV) by micro-tomography by comparison with the naive mice (DBA1 mice; experiment 1, 5 mg/d/kg, metatarsus joint, D53): did not have any BV/TV modification
Number of mice of the 8 showing moderate bone degradation (DBA1 mice; experiment 1, 5 mg/d/kg, three-dimensional reconstruction of first joint of metatarsus): 1
Correlation between the BV/TV and the arthritic score (DBA1 mice; experiment 2, 15 mg/d/kg intraperitoneal): no correlation
Levels of anti-collagen IgGs compared with PBS mice (DBA1 mice; experiment 2, 15 mg/d/kg intraperitoneal, serum at day 52): non-significantly different
Bone mass (BV/TV, right distal femur, micro-tomography) of mice having undergone ovariectomy (C57B1/6 mice; experiment 1, 5 mg/d/kg, retro-orbital sinus injection): not reduced
Bone mass of OVX animals compared with SHAM animals (C57B1/6 mice; experiment 2, 15 mg/d/kg, intraperitoneal injection): not significantly different
